These results are taken from US10336730B2, “Substituted glycine derived FXIA inhibitors” (BRISTOL-MYERS SQUIBB COMPANY, priority 2015, dated 2019).

This experiment deals with T1, purified human Factor XIa (Homo sapiens, UniProt P03951).
T1 construct: purchased Haematologic Technologies
Put plainly: Factor XIa enzyme inhibition assay (chromogenic substrate S-2366), Ki. It counts as biochemical. The note with it: substrate S-2366, pH 7.4. A digest of the protocol:
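Purified human Factor XIa ([…] final) with chromogenic substrate S-2366 (0.0002-0.001 M) in 50 mM HEPES pH 7.4, 145 mM NaCl, 5 mM KCl, 0.1% PEG 8000. Velocities measured over 20-180 minutes with and without inhibitor; Ki derived assuming competitive inhibition, e.g. Ki=IC50/(1+S/Km).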

T1 sequence (P03951 388-625 limits assumed): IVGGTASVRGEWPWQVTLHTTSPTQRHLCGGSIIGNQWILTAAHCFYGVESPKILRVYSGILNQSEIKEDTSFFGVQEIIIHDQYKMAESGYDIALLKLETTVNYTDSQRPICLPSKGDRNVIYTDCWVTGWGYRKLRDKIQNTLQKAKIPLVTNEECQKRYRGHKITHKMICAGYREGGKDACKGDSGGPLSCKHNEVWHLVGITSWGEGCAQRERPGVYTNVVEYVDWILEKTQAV
T1 sequence (P03951 19-387 partner limits assumed): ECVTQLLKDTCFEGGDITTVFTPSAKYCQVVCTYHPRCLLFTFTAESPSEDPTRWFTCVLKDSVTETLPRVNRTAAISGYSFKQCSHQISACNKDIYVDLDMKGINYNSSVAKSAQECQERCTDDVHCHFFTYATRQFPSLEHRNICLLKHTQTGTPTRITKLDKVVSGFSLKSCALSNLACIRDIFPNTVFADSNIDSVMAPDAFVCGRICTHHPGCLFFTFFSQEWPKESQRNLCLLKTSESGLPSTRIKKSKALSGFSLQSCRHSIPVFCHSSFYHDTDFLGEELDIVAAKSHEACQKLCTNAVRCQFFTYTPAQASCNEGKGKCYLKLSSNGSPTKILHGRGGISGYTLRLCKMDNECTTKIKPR

A word on the Ki: it is the dissociation constant of the complex between target and ligand, obtained from inhibition or displacement. `O=C(O)c1ccc(NC(=O)[C@H](Cc2ccc(NC(=O)C3CC3)cc2)N2CCC(c3c(F)ccc(Cl)c3F)=CC2=O)cc1` [Example 140, (S)-4-(2-(4-(3-chloro-2,6-difluorophenyl)-6-oxo-3,6-dihydropyridin-1(2H)-yl)-3-(4-(cyclopropanecarboxamido)phenyl)propanamido)benzoic Acid] showed a Ki of 0.552 µM.

In the case of `O=C(Nc1ccc(-c2ccncc2)cc1)[C@H](Cc1ccccc1)n1cnc(-c2cc(Cl)ccc2-n2cc(Cl)nn2)cc1=O` [Example 25, (S)-2-(4-(5-chloro-2-(4-chloro-1H-1,2,3-triazol-1-yl)phenyl)-6-oxopyrimidin-1(6H)-yl)-3-phenyl-N-(4-(pyridin-4-yl)phenyl)propanamide], the affinity corresponds to a Ki of 0.0496 µM.

Consider `NC(=O)c1ccc(NC(=O)[C@H](Cc2ccccc2)n2cnc(-c3cc(Cl)ccc3-n3cc(Cl)nn3)cc2=O)cc1` [Example 118, (S)-4-(2-(4-(5-chloro-2-(4-chloro-1H-1,2,3-triazol-1-yl)phenyl)-6-oxopyrimidin-1(6H)-yl)-3-phenylpropanamido)benzamide], for which the Ki is 0.0333 µM.

Turning to `CN(C)CCCNC(=O)[C@H](Cc1ccccc1)n1cnc(-c2cc(Cl)ccc2-n2cc(Cl)nn2)cc1=O` [Example 90, (S)-2-(4-(5-chloro-2-(4-chloro-1H-1,2,3-triazol-1-yl)phenyl)-6-oxopyrimidin-1(6H)-yl)-N-(3-(dimethylamino)propyl)-3-phenylpropanamide], the Ki stood at 5.92 µM.

Take `O=C(NC1CCC(O)CC1)[C@H](Cc1ccccc1)n1cnc(-c2cc(Cl)ccc2-n2cc(Cl)nn2)cc1=O` (stereo partly drawn) [Example 103, (S)-2-(4-(5-chloro-2-(4-chloro-1H-1,2,3-triazol-1-yl)phenyl)-6-oxopyrimidin-1(6H)-yl)-N-(4-hydroxycyclohexyl)-3-phenylpropanamide]: the Ki came to 0.127 µM.

Turning to `O=C(Nc1ccnc2ccc(Cl)cc12)[C@H](Cc1ccccc1)n1cnc(-c2cc(Cl)ccc2-n2cc(Cl)nn2)cc1=O` [Example 124, (S)-2-(4-(5-chloro-2-(4-chloro-1H-1,2,3-triazol-1-yl)phenyl)-6-oxopyrimidin-1(6H)-yl)-N-(6-chloroquinolin-4-yl)-3-phenylpropanamide], affinity was put at a Ki of 7.15 µM.

In turn, `O=C([C@H](Cc1ccccc1)n1cnc(-c2cc(Cl)ccc2-n2cc(Cl)nn2)cc1=O)N1CCc2ccccc2C1` [Example 71, (S)-6-(5-chloro-2-(4-chloro-1H-1,2,3-triazol-1-yl)phenyl)-3-(1-(3,4-dihydroisoquinolin-2(1H)-yl)-1-oxo-3-phenylpropan-2-yl)pyrimidin-4(3H)-one] gave a Ki of 0.79 µM.

The compound `CN1CCN(C(=O)[C@H](Cc2ccccc2)n2cnc(-c3cc(Cl)ccc3-n3cc(Cl)nn3)cc2=O)CC1` [Example 68, (S)-6-(5-chloro-2-(4-chloro-1H-1,2,3-triazol-1-yl)phenyl)-3-(1-(4-methylpiperazin-1-yl)-1-oxo-3-phenylpropan-2-yl)pyrimidin-4(3H)-one] returned a Ki of 4.41 µM. Against the preceding compound, the Ki is about 5.6-fold higher.

As to `Cn1ncc2cc(CNC(=O)[C@H](Cc3ccccc3)n3cnc(-c4cc(Cl)ccc4-n4cc(Cl)nn4)cc3=O)ccc21` [Example 79, (S)-2-(4-(5-chloro-2-(4-chloro-1H-1,2,3-triazol-1-yl)phenyl)-6-oxopyrimidin-1(6H)-yl)-N-((1-methyl-1H-indazol-5-yl)methyl)-3-phenylpropanamide], the Ki was found to be 0.63 µM. Against the preceding compound, the Ki is about 7-fold lower.

`CCOC(=O)Cn1ccc(NC(=O)[C@H](Cc2ccccc2)n2cnc(-c3cc(Cl)ccc3-n3cc(Cl)nn3)cc2=O)n1` [Example 34, ethyl (S)-2-(3-(2-(4-(5-chloro-2-(4-chloro-1H-1,2,3-triazol-1-yl)phenyl)-6-oxopyrimidin-1(6H)-yl)-3-phenylpropanamido)-1H-pyrazol-1-yl)acetate]: the affinity, expressed as Ki, was 1.66 µM. This Ki lies about 2.6-fold higher than the previous one.

Compound `N#Cc1ccc(NC(=O)[C@H](Cc2ccccc2)n2cnc(-c3cc(Cl)ccc3-n3cc(Cl)nn3)cc2=O)cc1F` [Example 92, (S)-2-(4-(5-chloro-2-(4-chloro-1H-1,2,3-triazol-1-yl)phenyl)-6-oxopyrimidin-1(6H)-yl)-N-(4-cyano-3-fluorophenyl)-3-phenylpropanamide] gave a Ki of 0.126 µM.

Take `COC(=O)Cc1ccc(NC(=O)[C@H](Cc2ccccc2)n2cnc(-c3cc(Cl)ccc3-n3cc(Cl)nn3)cc2=O)cc1` [Example 45, methyl (S)-2-(4-(2-(4-(5-chloro-2-(4-chloro-1H-1,2,3-triazol-1-yl)phenyl)-6-oxopyrimidin-1(6H)-yl)-3-phenylpropanamido)phenyl)acetate]: the Ki is 0.0882 µM. The Ki values of the last two compounds are within 1.5-fold of each other.

For `CC1(C)Oc2ccc(NC(=O)[C@H](Cc3ccccc3)n3cnc(-c4cc(Cl)ccc4-n4cc(Cl)nn4)cc3=O)nc2NC1=O` [Example 35, (S)-2-(4-(5-chloro-2-(4-chloro-1H-1,2,3-triazol-1-yl)phenyl)-6-oxopyrimidin-1(6H)-yl)-N-(2,2-dimethyl-3-oxo-3,4-dihydro-2H-pyrido[3,2-b][1,4]oxazin-6-yl)-3-phenylpropanamide], the Ki came out at 4.07 µM.

As for `CN1CCC(CNC(=O)[C@H](Cc2ccccc2)n2cnc(-c3cc(Cl)ccc3-n3cc(Cl)nn3)cc2=O)C1` (mixture of isomers) [Example 48, (2S)-2-(4-(5-chloro-2-(4-chloro-1H-1,2,3-triazol-1-yl)phenyl)-6-oxopyrimidin-1(6H)-yl)-N-((1-methylpyrrolidin-3-yl)methyl)-3-phenylpropanamide], affinity was put at a Ki of 7.37 µM.

Consider `O=C(Nc1noc2c(Cl)cccc12)[C@H](Cc1ccccc1)n1cnc(-c2cc(Cl)ccc2-n2cc(Cl)nn2)cc1=O` [Example 115, (S)-2-(4-(5-chloro-2-(4-chloro-1H-1,2,3-triazol-1-yl)phenyl)-6-oxopyrimidin-1(6H)-yl)-N-(7-chlorobenzo[d]isoxazol-3-yl)-3-phenylpropanamide], for which the Ki turned out to be 0.305 µM.

In turn, `O=C([C@H](Cc1ccccc1)n1cnc(-c2cc(Cl)ccc2-n2cc(Cl)nn2)cc1=O)N1CCOCC1` [Example 78, (S)-6-(5-chloro-2-(4-chloro-1H-1,2,3-triazol-1-yl)phenyl)-3-(1-morpholino-1-oxo-3-phenylpropan-2-yl)pyrimidin-4(3H)-one] registered a Ki of 4.45 µM.

The compound `O=C1NCCc2cc(NC(=O)[C@H](Cc3ccccc3)n3cnc(-c4cc(Cl)ccc4-n4cc(Cl)nn4)cc3=O)ccc21` [Example 97, (S)-2-(4-(5-chloro-2-(4-chloro-1H-1,2,3-triazol-1-yl)phenyl)-6-oxopyrimidin-1(6H)-yl)-N-(1-oxo-1,2,3,4-tetrahydroisoquinolin-6-yl)-3-phenylpropanamide] came in with an inhibitory constant (Ki) of 0.0278 µM.

The compound `O=C([C@H](Cc1ccccc1)n1cnc(-c2cc(Cl)ccc2-n2cc(Cl)nn2)cc1=O)N1CCC1` [Example 88, (S)-3-(1-(azetidin-1-yl)-1-oxo-3-phenylpropan-2-yl)-6-(5-chloro-2-(4-chloro-1H-1,2,3-triazol-1-yl)phenyl)pyrimidin-4(3H)-one] showed a Ki of 5.61 µM.

As to `O=C(NCCN1CCCC1)[C@H](Cc1ccccc1)n1cnc(-c2cc(Cl)ccc2-n2cc(Cl)nn2)cc1=O` [Example 69, (S)-2-(4-(5-chloro-2-(4-chloro-1H-1,2,3-triazol-1-yl)phenyl)-6-oxopyrimidin-1(6H)-yl)-3-phenyl-N-(2-(pyrrolidin-1-yl)ethyl)propanamide], the inhibition constant Ki is 7.62 µM. The Ki values of the last two compounds are within 1.5-fold of each other.
